# Test results reported in patent US20240208896A1, “PRODRUGS OF KV7 CHANNEL OPENERS” (Xyzagen, Inc., priority 2021, published 2024).
# Read-outs that look alike come from different tables or passages of the source.
# Experiments:
# [1] = known value, cited from earlier work
# [2] = patients receiving ezogabine (POTIGA); Potiga label; cited from earlier work
# [3] = in solvent, exposed to light; known; cited from earlier work
# [4] = Pharmacokinetics of ezogabine prodrugs in rat (IV, IM, PO); conditions: male SD rat, PO 20 mg/kg, analyte Cmpd 1
# Protocol: (§1) Blood was diluted by 10% with these stabilizers.
# (§2) Extraction of the molecules was conducted by taking a 50 uL aliquot of plasma and adding 200 uL of acetonitrile containing 200 ng/mL tolbutamide as the internal standard. Samples were precipitated in a 96 well plate, centrifuges and an aliquot transferred to a new plate, dried down under heat and nitrogen and then reconstituted in the initial mobile phase conditions of the LC-MS/MS method. […] A standard curve was prepared from 5000 ng/mL to 1 ng/mL for each analyte. Concentration data from the bioanalytical run was analyzed by Phoenix Winnonlin version 8 for noncompartmental PK analysis, plotting of concentration time curves and tabulation of PK parameters.
# 150 uL of blood were collected at predesignated time points. At completion of the study animals were asphyxiated by carbon dioxide gas and exsanguinated for euthanasia.
# [5] = type: physicochemical; conditions: for % Conversion to dimer / Concentration of dimer: 8 mg/mL in SGF, 38° C.
# From the text: The structure of the dimer is presented.
# Human Kv7.2/7.3 = Human Kv7.2/7.3 (Homo sapiens, UniProt O43525+O43526); assay: In vitro screen of Kv7.2/7.3 voltage gated potassium channels (FluxOR, FLIPR); type: cell-based
# Protocol: Human Kv7.2/7.3 cells are harvested, counted and seeded in black, clear-bottomed 96 well plates at a density of 50,000 cells per well in 100 μl volume and incubated overnight. The following day, media was removed and 40 μl of loading buffer (4.895 mL HBSS:HEPES, 50 μL probenecid, 50 μL power load, 5 μl FluxOR reagent) was added and incubated at room temperature for 30 minutes. After incubation loading buffer was removed and 40 μl of assay buffer added (4.45 ml HBSS:HEPES, 500 μl FluxOR assay buffer and 50 μL probenecid) and incubated for 10 minutes.
# [6] = Pharmacokinetics of ezogabine prodrugs in mouse (SC, PO); conditions: male mice, PO 20 mg/kg, analyte Cmpd 1
# Protocol: as §1
# as §2, with “noncompartmental sparse sampling” for “noncompartmental”
# Animals were asphyxiated by carbon dioxide gas, blood was collected by cardiac stick and they were euthanized by cervical dislocation.
# [7] = Acid and organic solution stability, HPLC-UV 250 nm; conditions: 5 mg/mL; for Colour of stability solution: room temperature; for Ezogabine Area (formed from the prodrug): 440 h
# Protocol: An HPLC-UV Vis method was developed using 0.1% Formic acid in water as mobile phase A and 0.1% Formic acid in acetonitrile as mobile Phase B. A gradient method was developed ramping from 10% A to 90% B over 8 minutes and then returning to 10% A at 8.5 minutes on a 4.6×50 mm Zorbax C-18 column. Injections of 10 uL of stability solutions were injected for analyte detection.
# […] Aliquots were collected at serial time points and then diluted to a nominal concentration of 100 ug/mL for injection to the HPLC and 250 nm monitored by the diode array detector. Data at approximately 10 days is presented.
# Aliquots were collected at serial time points and then diluted to a nominal concentration of 100 ug/mL for injection to the HPLC and 250 nm monitored by the diode array detector.
# (§3) It was also evaluated at 2 N HCl at 37° C. Aliquots were collected at serial time points and then diluted to a nominal concentration of 100 ug/mL for injection to the HPLC and 250 nm monitored by the diode array detector.
# as §3, §3, §3
# MES induced seizures = assay: MES assay in CF-1 mice, Compound 28 IP dose response; type: in vivo, CF-1 mouse; conditions: for Animals protected from MES induced seizures: 30 minutes after administration
# [8] = Rat PK at equimolar dose to Ezogabine (20 mg/kg) in 0.5% methylcellulose; conditions: male cannulated rats; equimolar to Ezogabine 20 mg/kg; 0.5% methylcellulose; analyte the dosed prodrug
# Protocol: (§4) Blood samples were collected at the same time points over 24 hours to generate a concentration time profile. Two male rats were dosed per group. Plasma samples were analyzed by LC/MS/MS and the resulting concentration time profiles and PK parameters are provided.
# as §4, §4
# Sequence of Human Kv7.2/7.3 (O43526 whole entry): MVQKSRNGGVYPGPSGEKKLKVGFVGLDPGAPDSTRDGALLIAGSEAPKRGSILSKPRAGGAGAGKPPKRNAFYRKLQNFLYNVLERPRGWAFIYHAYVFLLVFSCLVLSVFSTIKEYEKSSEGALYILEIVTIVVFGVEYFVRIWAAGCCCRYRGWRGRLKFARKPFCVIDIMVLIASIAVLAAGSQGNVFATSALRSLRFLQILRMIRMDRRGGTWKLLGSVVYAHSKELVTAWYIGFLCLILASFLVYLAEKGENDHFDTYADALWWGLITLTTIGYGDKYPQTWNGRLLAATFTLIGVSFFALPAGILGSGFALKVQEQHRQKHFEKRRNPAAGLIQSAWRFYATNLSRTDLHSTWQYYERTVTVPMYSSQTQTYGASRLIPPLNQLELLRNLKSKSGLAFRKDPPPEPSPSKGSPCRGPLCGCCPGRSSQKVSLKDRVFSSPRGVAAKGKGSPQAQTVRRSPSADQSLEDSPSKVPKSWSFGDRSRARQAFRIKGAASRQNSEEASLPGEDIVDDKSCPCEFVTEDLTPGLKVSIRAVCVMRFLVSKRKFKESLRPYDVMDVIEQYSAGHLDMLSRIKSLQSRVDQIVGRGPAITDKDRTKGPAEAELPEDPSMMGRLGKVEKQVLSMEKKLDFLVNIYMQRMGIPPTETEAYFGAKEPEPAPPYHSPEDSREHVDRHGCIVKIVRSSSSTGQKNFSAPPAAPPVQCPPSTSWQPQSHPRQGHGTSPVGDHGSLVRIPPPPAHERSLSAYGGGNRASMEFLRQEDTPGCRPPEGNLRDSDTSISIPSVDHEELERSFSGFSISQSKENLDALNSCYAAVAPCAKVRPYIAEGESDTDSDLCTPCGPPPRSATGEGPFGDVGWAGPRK
# Sequence of Human Kv7.2/7.3 (O43525 whole entry): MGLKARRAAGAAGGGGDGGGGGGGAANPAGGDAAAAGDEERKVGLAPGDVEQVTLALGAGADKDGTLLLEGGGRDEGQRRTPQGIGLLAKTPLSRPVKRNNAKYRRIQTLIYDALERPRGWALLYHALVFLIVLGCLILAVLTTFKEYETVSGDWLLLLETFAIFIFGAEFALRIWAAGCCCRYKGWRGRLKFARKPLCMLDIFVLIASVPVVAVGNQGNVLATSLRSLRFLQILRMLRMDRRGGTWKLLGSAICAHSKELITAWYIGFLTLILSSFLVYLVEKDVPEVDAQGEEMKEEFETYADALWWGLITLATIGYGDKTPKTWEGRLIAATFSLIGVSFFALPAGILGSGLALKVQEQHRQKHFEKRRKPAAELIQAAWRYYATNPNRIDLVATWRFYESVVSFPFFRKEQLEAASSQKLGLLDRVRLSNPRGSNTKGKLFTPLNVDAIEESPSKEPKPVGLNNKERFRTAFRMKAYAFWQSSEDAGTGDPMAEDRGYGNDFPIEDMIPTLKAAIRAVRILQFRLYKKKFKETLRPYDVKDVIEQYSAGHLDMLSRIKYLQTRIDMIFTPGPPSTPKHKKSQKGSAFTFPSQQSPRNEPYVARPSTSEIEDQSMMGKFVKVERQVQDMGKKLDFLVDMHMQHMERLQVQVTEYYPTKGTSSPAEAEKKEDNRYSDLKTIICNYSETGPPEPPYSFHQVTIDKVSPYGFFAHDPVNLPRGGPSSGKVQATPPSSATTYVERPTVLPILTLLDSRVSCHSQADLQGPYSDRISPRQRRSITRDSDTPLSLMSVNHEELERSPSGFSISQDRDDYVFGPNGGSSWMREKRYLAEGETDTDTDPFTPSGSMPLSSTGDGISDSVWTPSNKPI
compound,measurement,setting,value
"CCOC(=O)Nc1ccc(NCc2ccc(F)cc2)cc1N [Compound 1, Ezogabine]",Solubility,[1]; 0.1N NaCl,40 µg/mL
same,Solubility,[1]; 0.1N NaOH,40 µg/mL
same,Solubility,[1]; Ethanol,20000 µg/mL
same,Solubility,[1]; Methanol,54000 µg/mL
same,Solubility,[1]; Water,50 µg/mL
same,Solubility,"[1]; listed as 0.1 Na2HPO4, determined in 0.1N K2HPO4",180 µg/mL
same,Adverse reaction: abnormal coordination,[2],7%
same,Adverse reaction: aphasia,[2],4%
same,Adverse reaction: asthenia,[2],5%
same,Adverse reaction: balance disorder,[2],4%
same,Adverse reaction: blurred vision,[2],5%
same,Adverse reaction: confusional state,[2],9%
same,Adverse reaction: diplopia,[2],7%
same,Adverse reaction: disturbance in attention,[2],6%
same,Adverse reaction: dizziness,[2],23%
same,Adverse reaction: dysarthria,[2],4%
same,Adverse reaction: fatigue,[2],15%
same,Adverse reaction: gait disturbance,[2],4%
same,Adverse reaction: memory impairment,[2],6%
same,Adverse reaction: somnolence,[2],22%
same,Adverse reaction: tremor,[2],8%
same,Adverse reaction: vertigo,[2],8%
same,Time to degradation with light,[3],3 to 7 days
same,Cmax/D,[4],44.8 ng/mL/mg/kg
same,AUClast/D,[4]; 24 h,280 ng·h/mL/mg/kg
same,% Conversion to dimer,[5]; Time 0,0%
same,Concentration of dimer,[5]; Time 0,0.00 ng/mL
same,% Conversion to dimer,[5]; Time 1 h,0.250%
same,Concentration of dimer,[5]; Time 1 h,19.5 ng/mL
same,% Conversion to dimer,[5]; Time 4 h,7.95%
same,Concentration of dimer,[5]; Time 4 h,623 ng/mL
same,% Conversion to dimer,[5]; Time 8 h,25.2%
same,Concentration of dimer,[5]; Time 8 h,1980 ng/mL
same,Stability at low pH,[5]; low pH (1 N HCl) and simulated gastric fluid,degrades and forms a chromophore dimer
same,EC50,Human Kv7.2/7.3,1600 nM
same,Cmax/D,[6],148 ng/mL/mg/kg
same,AUClast/D,[6]; 6 h,190 ng·h/mL/mg/kg
same,% Remaining,"[7]; 0.1N HCl, room temp., normal light, 267 h",50.7%
same,% Remaining,"[7]; 1N HCl, room temp., normal light, 267 h",68.2%
same,% Remaining,"[7]; Acetonitrile, room temp., normal light, 219 h",44.9%
same,% Remaining,"[7]; Methanol, room temp., normal light, 267 h",41.3%
same,Colour of stability solution,[7]; acid solutions,turning light purple (indicating degradation) by Day 2
same,Colour of stability solution,[7]; organic solvents,did not begin turning purple until Day 7
CCOC(=O)Nc1ccc(NCc2ccc(F)cc2)cc1NC(=O)C[C@@H](CN)CC(C)C [Compound 28],Animals protected from MES induced seizures,MES induced seizures; IP 12 mg/kg,1 of 9
same,Animals protected from MES induced seizures,MES induced seizures; IP 24 mg/kg,3 of 9
same,Protection against MES induced seizures,"MES induced seizures; IP 1.5, 3, 6, 12 and 24 mg/kg",None of the doses showed complete protection
same,AUClast/D,[8],83.0 ng·h/mL/mg/kg
same,Cmax/D,[8],9.31 ng/mL/mg/kg
same,Ezogabine Area (formed from the prodrug),"[7]; 0.1N HCl, room temp., normal light",0 mAU
same,Ezogabine Area (formed from the prodrug),"[7]; 1N HCl, room temp., normal light",568 mAU
same,Ezogabine Area (formed from the prodrug),[7]; 2N HCl 37C,3593 mAU
same,Ezogabine Area (formed from the prodrug),"[7]; 2N HCl, room temp., normal light",1462 mAU
same,Ezogabine Area (formed from the prodrug),"[7]; Acetonitrile, room temp., normal light",248 mAU
same,Ezogabine Area (formed from the prodrug),"[7]; Methanol, room temp., normal light",0 mAU
same,Degradation / conversion to ezogabine in solution,"[7]; acidic solutions and organic solvents, up to 3 weeks",exhibits degradation to ezogabine with increasing strength of the acidic solution
